The values that follow come from ChEMBL document CHEMBL4340555, “Synthesis and biological evaluation of 2-chloro-3-[(thiazol-2-yl)amino]-1,4-naphthoquinones” (Bioorg Med Chem Lett, 2019).

Data set [1] relates to HeLa. Nature of the data set: Cytotoxicity against human HeLa cells assessed as cell viability at 20 uM after 24 hrs by resazurin based fluorescence assay relative to control. Particulars: read-out: Activity. In kind it is functional.
Data set [2] in a line: Lipophilicity, log P of the compound. The class given is physicochemical. Particulars: octanol/water.
In data set [3] the test system is Pseudomonas aeruginosa. Nature of the data set: Antimicrobial activity against Pseudomonas aeruginosa assessed as zone of inhibition at 2000 uM/disk after 24 hrs by disk diffusion method. The class given is functional. The settings on record: for zone of inhibition at 2000 µM: read-out: DIZ.
Data set [4] deals with Pseudomonas aeruginosa. In words: Antimicrobial activity against Pseudomonas aeruginosa assessed as zone of inhibition after 24 hrs by disk diffusion method. In kind it is functional, organism-based.
The subject of data set [5] is Mycobacterium tuberculosis. In words: Antitubercular activity against Mycobacterium tuberculosis H37Rv assessed as reduction in bacterial growth after 7 days by green fluorescent protein microplate assay. In kind it is functional. Particulars: 168 h.
Data set [6] relates to Pseudomonas aeruginosa. In words: Antimicrobial activity against Pseudomonas aeruginosa assessed as zone of inhibition at 100 uM/disk after 24 hrs by disk diffusion method. The settings on record: for zone of inhibition at 100 µM: read-out: DIZ. In kind it is functional.
The test system of data set [7] is Plasmodium falciparum. In words: Antimalarial activity against Plasmodium falciparum 3D7 assessed as reduction in parasite viability at 20 uM by parasite lactate dehydrogenase released based colorimetric assay relative to control. The class given is functional.
Data set [8] has as its system Pseudomonas aeruginosa. Nature of the data set: Antimicrobial activity against Pseudomonas aeruginosa assessed as zone of inhibition at 10 uM/disk after 24 hrs by disk diffusion method. The class given is functional. The settings on record: for zone of inhibition at 10 µM: read-out: DIZ.
Data set [9] deals with Pseudomonas aeruginosa. In words: Antimicrobial activity against Pseudomonas aeruginosa assessed as zone of inhibition at 1 uM/disk after 24 hrs by disk diffusion method. The class given is functional.
Data set [10] deals with SH-SY5Y. Nature of the data set: Cytotoxicity against human SH-SY5Y assessed as reduction in cell viability after 48 hrs by xCELLigence RTCA SP analysis. In kind it is functional, cell-based.
The subject of data set [11] is Pseudomonas aeruginosa. In words: Antimicrobial activity against Pseudomonas aeruginosa assessed as zone of inhibition at 1000 uM/disk after 24 hrs by disk diffusion method. In kind it is functional. The settings on record: for zone of inhibition at 1000 µM: read-out: DIZ.
Data set [12] has as its system Mycobacterium tuberculosis. In words: Antitubercular activity against Mycobacterium tuberculosis H37Rv assessed as reduction in bacterial growth after 14 days by green fluorescent protein microplate assay. In kind it is functional. The settings on record: 336 h.
Data set [13] deals with Plasmodium falciparum. In words: Antimalarial activity against Plasmodium falciparum 3D7 assessed as reduction in parasite viability by parasite lactate dehydrogenase release based colorimetric assay. In kind it is functional, organism-based.
In data set [14] the test system is Pseudomonas aeruginosa. In words: Antimicrobial activity against Pseudomonas aeruginosa assessed as zone of inhibition at 10 ug/disk after 24 hrs by disk diffusion method. The class given is functional. The settings on record: read-out: DIZ.
Data set [15] relates to Plasmodium falciparum. In words: Stimulation of parasite proliferation of Plasmodium falciparum 3D7 assessed as increase in parasite viability at 20 uM by parasite lactate dehydrogenase released based colorimetric assay relative to control. The class given is organism-based.
Data set [16] concerns Pseudomonas aeruginosa. Nature of the data set: Antimicrobial activity against Pseudomonas aeruginosa assessed as zone of inhibition at 25 ug/disk after 24 hrs by disk diffusion method. In kind it is functional. The settings on record: read-out: DIZ.

In brackets after ≈: the same amount, converted by molar mass. Activity calls are given as the source filed them. No cut-off for these calls is given here.

For the molecule `O=C1C(Cl)=C(Nc2nc(-c3ccccc3)cs2)C(=O)c2ccccc21`, in data set [1], the viability at 20 µM amounted to 80%. Moreover, the logP in data set [2] was under 5. Also, the zone of inhibition at 2000 µM in [3] was 13.2 mm. Besides, the Activity entry in data set [4] and in data set [10] was “Dose-dependent effect” each time. The MIC90 in [5] was found to be 9.19 µM (≈ 3.37 µg/mL). Further, the zone of inhibition at 100 µM in data set [6] stood at 9.1 mm. In addition, in [7], the inhibition at 20 µM is 10%. In addition, the zone of inhibition at 10 µM in data set [8] came to 5.3 mm. Besides, the “diameter of the inhibition zone (DIZ)” value in data set [9] is “inactive”. Further, the concentration for half-maximal inhibition (IC50) in data set [10] was determined as 1.8 µM. For the same molecule, the zone of inhibition at 1000 µM in [11] worked out at 11.4 mm. For the same molecule, the MIC99 in data set [12] stood at 10.2 µM (≈ 3.74 µg/mL).
`CO[C@H]1/C=C/O[C@@]2(C)Oc3c(C)c(O)c4c(O)c(c(/C=N/N5CCN(C)CC5)c(O)c4c3C2=O)NC(=O)/C(C)=C\C=C\[C@H](C)[C@H](O)[C@@H](C)[C@@H](O)[C@@H](C)[C@H](OC(C)=O)[C@@H]1C` [RIFAMPIN]: the MIC90 in [5] came to 0.0015 µM (≈ 0.00123 µg/mL). Also, in data set [12], the MIC99 came out at 0.00167 µM (≈ 0.00137 µg/mL).
On to `O=C1C(Cl)=C(Nc2nc(-c3ccc([N+](=O)[O-])cc3)cs2)C(=O)c2ccccc21`, for which the viability at 20 µM in data set [1] turned out to be 80%. The molecule further returned a logP in [2] of under 5. Besides, the zone of inhibition at 2000 µM in data set [3] stood at 14.1 mm. Besides, the Activity entry in data set [4] and in data set [10] was “Dose-dependent effect” in each case. Moreover, the IC50 in data set [13] turned out to be 20.3 µM. The MIC90 in data set [5] is over 20 µM. Further, the zone of inhibition at 100 µM in data set [6] was 7.2 mm. In addition, the inhibition at 20 µM in data set [7] was 80 to 90%. Further, the “diameter of the inhibition zone (DIZ)” value in data set [8] and in data set [9] was “inactive” throughout. Moreover, the zone of inhibition at 1000 µM in data set [11] stood at 11 mm. Further, the MIC99 in data set [12] was over 20 µM.
As for `O=C1C(Cl)=C(Nc2nc(-c3ccc(Br)cc3)cs2)C(=O)c2ccccc21`, in [1], the viability at 20 µM is 55%. The logP in [2] is under 5. Also, the “diameter of the inhibition zone (DIZ)” value in data set [3], in [6], in [8], in [9] and in data set [11] was “inactive” each time. Moreover, the IC50 in data set [13] turned out to be 50.6 µM. Moreover, the MIC90 in data set [5] is over 20 µM. The inhibition at 20 µM in data set [7] lay within 80 to 90%. Moreover, the Activity result in [10] is “Dose-dependent effect”. For the same molecule, the MIC99 in data set [12] is over 20 µM.
Regarding `CN[C@@H]1[C@H](O[C@H]2[C@H](O[C@H]3[C@H](O)[C@@H](O)[C@H](N=C(N)N)[C@@H](O)[C@@H]3N=C(N)N)O[C@@H](C)[C@]2(O)C=O)O[C@@H](CO)[C@H](O)[C@H]1O` [STREPTOMYCIN], the zone of inhibition at 10 µg/disc in [14] turned out to be 20 mm.
Take `O=C(O)c1csc(NC2=C(Cl)C(=O)c3ccccc3C2=O)n1`: the viability at 20 µM in data set [1] is 75%. This molecule had a logP in data set [2] of under 5. For the same molecule, the “diameter of the inhibition zone (DIZ)” value in [3], in [6], in [8], in data set [9] and in data set [11] was “inactive” in each case. In addition, the Activity was 15% in data set [15] and “Dose-dependent effect” in data set [10]. Besides, the MIC90 in data set [5] was over 20 µM. Further, the half-inhibitory concentration (IC50) in data set [10] is over 100 µM. In [12], the MIC99 is over 20 µM.
In the case of `CCOC(=O)c1csc(NC2=C(Cl)C(=O)c3ccccc3C2=O)n1`, in data set [1], the viability at 20 µM turned out to be 82%. Moreover, in data set [2], the logP is under 5. Further, the “diameter of the inhibition zone (DIZ)” value in [3], in data set [6], in data set [8], in [9] and in data set [11] was “inactive” in each case. The MIC90 in [5] was 19.5 µM (≈ 7.07 µg/mL). In addition, the inhibition at 20 µM in data set [7] worked out at 40%. Besides, the Activity entry in data set [10] is “Dose-dependent effect”. In addition, the IC50 in data set [10] was 31.1 µM. The MIC99 in data set [12] was over 20 µM.
`CCN(CC)CCCC(C)Nc1ccnc2cc(Cl)ccc12` (centres undefined) [CHLOROQUINE]: in data set [1], the viability at 20 µM came to 3.6%. Moreover, the “diameter of the inhibition zone (DIZ)” value in data set [3], in data set [6], in data set [8], in data set [9] and in data set [11] was “inactive” throughout.
As for `CC1(C)S[C@@H]2[C@H](NC(=O)[C@H](N)c3ccccc3)C(=O)N2[C@H]1C(=O)O` [AMPICILLIN], the zone of inhibition at 25 µg/disc in [16] is 24.7 mm.
Regarding `O=C1C(Cl)=C(Nc2nc(-c3ccc(Cl)cc3)cs2)C(=O)c2ccccc21`, the viability at 20 µM in [1] worked out at 80%. This molecule displayed a logP in data set [2] of under 5. Further, in data set [3], the zone of inhibition at 2000 µM came to 12 mm. The Activity result in [4] and in data set [10] was “Dose-dependent effect” in each case. Besides, the MIC90 in data set [5] is over 20 µM. In data set [6], the zone of inhibition at 100 µM stood at 7.6 mm. In data set [7], the inhibition at 20 µM worked out at 30%. Also, the “diameter of the inhibition zone (DIZ)” value in data set [8] and in [9] was “inactive” in each case. In data set [10], the concentration for half-maximal inhibition (IC50) is 2.7 µM. In [11], the zone of inhibition at 1000 µM was found to be 9.7 mm. The MIC99 in [12] is over 20 µM.
As to `O=C1C(Cl)=C(Nc2nc(-c3ccc(F)cc3)cs2)C(=O)c2ccccc21`, the viability at 20 µM in [1] was 75%. The molecule also displayed a log partition coefficient (logP) in data set [2] of under 5. For the same molecule, the zone of inhibition at 2000 µM in [3] was found to be 19.5 mm. In addition, the Activity entry in data set [4] and in data set [10] was “Dose-dependent effect” throughout. Moreover, the IC50 turned out to be 44.7 µM in data set [13] and 1.5 µM in [10]. The MIC90 in data set [5] was determined as 9.37 µM (≈ 3.61 µg/mL). For the same molecule, in data set [6], the zone of inhibition at 100 µM worked out at 11 mm. Besides, the inhibition at 20 µM in data set [7] lay in the range of 80 to 90%. In data set [8], the zone of inhibition at 10 µM came out at 8 mm. In addition, the zone of inhibition at 1 µM in [9] (read-out: DIZ) was determined as 5 mm. For the same molecule, in data set [11], the zone of inhibition at 1000 µM worked out at 15 mm. For the same molecule, the MIC99 in data set [12] was 10.4 µM (≈ 4 µg/mL).
